The text below walks through data of patent publication US20160256480A1, “THERAPEUTIC COMPOSITION FOR WOUND HEALING” (priority 2015, published 2016).

A short description of data set [1]: Dissolution of beta-glucan in MilliQ Ultrapure water. The format is physicochemical. The procedure:
(§1) J774A.1 cells are mouse monocyte/macrophage cells. These cells are adherent and upon death will detach from the surface fo the culture flasks or coverslips. Cells were grown to approximately 80% confluence in 24-well plates on 12 mm coverslips overnight. Cells were grown in a minimum essential medium with insulin (IMEMZO, Irvine Scientific, Santa Ana, Calif.) with 5% fetal bovine serum (FBS, Atlanta Biologicals, Norcross, Ga.). Beta-glucan was dissolved with MilliQ Ultrapure water. […] Beta-glucan was diluted with IMEMZO media and added to the cells for the duration of the incubation. Cells were examined daily and phase-contrast images taken at specific intervals to capture the health of the cells. All images were captured at 200× magnification.

For another data set, the system named is J774A.1 cells. Put plainly: Incubation of J774A.1 mouse macrophages with beta-glucan, phase-contrast examination of cell health. The format is cell-based. The procedure:
as §1
The beta-glucan was purchased from Sigma-Aldrich (CAS Number 9051-97-2; MDL number MFCD00466918). Beta-glucan source was Euglena gracilis.

Consider “beta-1,3-Glucan from Euglena gracilis [beta-glucan]”, for which the solubility in water result in data set [1] was “only partially dissolved”. Also, the “effect on cell growth and proliferation” value with J774A.1 cells (1 mg/ml beta-glucan over 48 hours) is “no adverse affect on the cell growth and proliferation”. Moreover, the “increase in cell numbers” value in the data set with J774A.1 cells (3 mg/ml beta-glucan, base media IMEMZO, 48 hours) was “increased in numbers at a rate that is typical in the base media”. In addition, the “visible pathological effects on cellular growth or survival” value in the data set with J774A.1 cells (3 mg/ml beta-glucan, mouse macrophages, 48 hour culture period) was “did not pose any visible pathological effects on cellular growth or survival”. Besides, the “cell size and adherence” value in the data set with J774A.1 cells (3 mg/ml beta-glucan, over the 48 hour culture period) was “did not decrease in size and remained adherent”.
